How the values were obtained:
Experiment in all cases: Dose response test, growth in 96-well plates
Format in all cases: cell-based, Chlorella fusca
[1] = system: Cf-496-8; details: Cf-496-8 (M278L_F279I); 2-fold dilutions from 100 ppm
Method: (§1) Dose response tests with B5U were set-up in 96-well, flat bottomed plates. 200 μl medium was used in each well. 2 μl of 6 day old culture was added to each well, then 2 μl of DMSO or dilution of test compound were added to respective wells. 2-fold dilutions starting at 100 ppm were used per well. Plates were incubated at 25° C., 50 μmol/m^2/s, 16 hour photoperiod.
(§2) This was assessed by a visual inspection of growth in the 96-well plate. The inhibitor concentration at which no growth is observed is then defined as the LD.
(§3) Starting dose was 100 ppm and decreasing with 2-fold dilutions with C. fusca wt, the five HST mutants and the 10 compounds to which the wt is sensitive. Plates were incubated at 25° C., 50 μmol/m2/s, 16 hour photoperiod.

[2] = system: Cf-496-28; details: Cf-496-28 (V276A); 2-fold dilutions from 100 ppm
Method: as §1, §2, §3

[3] = system: Cf-496-94; details: Cf-496-94 (F275L); 2-fold dilutions from 100 ppm
Method: as §1, §2, §3

[4] = system: Cf WT; details: Cf WT; 2-fold dilutions from 100 ppm
Method: as §1, §2, §3

[5] = system: Cf-496-19; details: Cf-496-19 (F275I); 2-fold dilutions from 100 ppm
Method: as §1, §2, §3

[6] = system: Cf-496-15; details: Cf-496-15 (T277N); 2-fold dilutions from 100 ppm
Method: as §1, §2, §3

Compound | dose response to HST inhibiting compounds [1] | dose response to HST inhibiting compounds [2] | dose response to HST inhibiting compounds [3] | dose response to HST inhibiting compounds [4] | dose response to HST inhibiting compounds [5] | dose response to HST inhibiting compounds [6]
Cc1nn(C)c(=O)c(-c2c(F)ccc(Cl)c2CCc2ccccc2C(F)(F)F)c1O [B5m, 4-[3-chloro-6-fluoro-2-[2-[2-(trifluoromethyl)phenyl]ethyl]phenyl]-5-hydroxy-2,6-dimethyl-pyridazin-3-one] | >100 ppm | >100 ppm | >100 ppm | 12.5 ppm | >100 ppm | >100 ppm
Cc1nn(C)c(=O)c(-c2c(F)ccc(Cl)c2CCc2ccc(F)cc2)c1OC(=O)C(C)C [B5p, [5-[3-chloro-6-fluoro-2-[2-(4-fluorophenyl)ethyl]phenyl]-1,3-dimethyl-6-oxo-pyridazin-4-yl]2-methylpropanoate] | >100 ppm | >100 ppm | >100 ppm | 25 ppm | >100 ppm | >100 ppm
